Converted amounts (≈) assume the structure as drawn.
What was measured:
[1] = tested on: P. aeruginosa (ΔmexAB-oprM); assay: Broth microdilution MIC in CAMHB; type: cell-based; settings: Pseudomonas aeruginosa; read-out: MIC P. aeruginosa ΔmexAB-oprM
N. gonorrhoeae CDC-0197 = assay: Liquid broth MIC in Fastidious broth; settings: Neisseria gonorrhoeae, CDC0197, read-out: Minimum Inhibitory Concentration (MIC), N. gonorrhoeae CDC-0197
E. coli AG100A = assay: Broth microdilution MIC in CAMHB; type: cell-based; settings: Escherichia coli, read-out: MIC E. coli AG100A
N. gonorrhoeae WHO Q = assay: Liquid broth MIC in Fastidious broth; settings: Neisseria gonorrhoeae, read-out: Minimum Inhibitory Concentration (MIC), N. gonorrhoeae WHO Q
N. gonorrhoeae WHO M = assay: Liquid broth MIC in Fastidious broth; settings: Neisseria gonorrhoeae, read-out: Minimum Inhibitory Concentration (MIC), N. gonorrhoeae WHO M
[2] = target: T1, PBP3 from Escherichia coli (K-12) (Escherichia coli, UniProt P0AD68); assay: Bocillin-FL fluorescence polarization competition binding, E. coli PBP3
T1 construct: made in house
T1 sequence (P0AD68 1-577): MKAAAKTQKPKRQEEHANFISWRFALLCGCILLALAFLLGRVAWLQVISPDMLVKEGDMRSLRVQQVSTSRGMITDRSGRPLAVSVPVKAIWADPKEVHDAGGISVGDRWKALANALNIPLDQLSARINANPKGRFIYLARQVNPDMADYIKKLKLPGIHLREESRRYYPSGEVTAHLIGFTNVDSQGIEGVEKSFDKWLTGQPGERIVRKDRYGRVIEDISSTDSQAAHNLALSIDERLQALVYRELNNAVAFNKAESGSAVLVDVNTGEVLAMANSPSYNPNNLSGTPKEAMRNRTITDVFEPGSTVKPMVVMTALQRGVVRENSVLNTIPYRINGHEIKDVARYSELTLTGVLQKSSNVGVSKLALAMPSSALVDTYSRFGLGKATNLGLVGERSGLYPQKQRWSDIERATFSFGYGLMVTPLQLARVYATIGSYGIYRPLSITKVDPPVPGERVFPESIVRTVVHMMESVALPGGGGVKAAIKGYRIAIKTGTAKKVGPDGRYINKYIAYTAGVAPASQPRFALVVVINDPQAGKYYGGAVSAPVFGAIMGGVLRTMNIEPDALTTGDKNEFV
Summary of the method: (§1)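 Purified PBP was preincubated with inhibitor (E. coli PBP3 1.5 μM, 30 min; P. aeruginosa PBP3 0.75 μM, A. baumannii PBP3 0.2 μM and PBP1a 1 μM, 15 min), then Bocillin-FL (0.1 μM; 0.05 μM for PBP1a) added and FP read up to 60 min. EC50 = 50% loss of bound probe.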

E. coli ATCC 25922 = assay: microbe, parasite or virus in culture; type: cell-based; settings: Escherichia coli, ATCC25922, read-out: MIC E. coli 25922
[3] = target: T2, PBP3 from Pseudomonas aeruginosa (PAO1) (Pseudomonas aeruginosa, UniProt G3XD46); assay: Bocillin-FL fluorescence polarization competition binding, P. aeruginosa PBP3; settings: Binding affinity to P. aeruginosa PBP3; fluorescence polarization competition binding assay using Bocillin-FL; read-out: P. aeruginosa PBP3 Potency
T2 construct: made in house
T2 sequence (G3XD46 whole entry): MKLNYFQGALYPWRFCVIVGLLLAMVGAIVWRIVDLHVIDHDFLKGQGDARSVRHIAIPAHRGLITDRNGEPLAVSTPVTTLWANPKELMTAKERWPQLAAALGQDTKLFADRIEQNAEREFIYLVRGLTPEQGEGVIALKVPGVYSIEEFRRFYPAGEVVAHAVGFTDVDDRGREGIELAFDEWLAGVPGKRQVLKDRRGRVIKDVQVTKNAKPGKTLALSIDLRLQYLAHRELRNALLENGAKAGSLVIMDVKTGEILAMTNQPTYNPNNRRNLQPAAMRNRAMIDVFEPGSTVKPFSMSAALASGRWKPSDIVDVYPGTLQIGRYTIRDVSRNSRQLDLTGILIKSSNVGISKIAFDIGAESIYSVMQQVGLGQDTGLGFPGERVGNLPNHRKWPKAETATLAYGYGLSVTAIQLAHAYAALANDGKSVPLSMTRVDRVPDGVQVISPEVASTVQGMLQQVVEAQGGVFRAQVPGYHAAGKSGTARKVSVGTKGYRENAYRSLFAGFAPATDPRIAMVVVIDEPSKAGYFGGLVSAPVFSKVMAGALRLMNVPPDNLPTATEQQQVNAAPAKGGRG
Summary of the method: as §1

K. pneumoniae 848844 = assay: microbe, parasite or virus in culture; type: cell-based; settings: Klebsiella pneumoniae, 848844, read-out: MIC K. pneumoniae 848844
N. gonorrhoeae WHO X = assay: Liquid broth MIC in Fastidious broth; settings: Neisseria gonorrhoeae, read-out: Minimum Inhibitory Concentration (MIC), N. gonorrhoeae WHO X
A. baumannii ATCC 19606 = assay: microbe, parasite or virus in culture; type: cell-based; settings: Acinetobacter baumannii, ATCC19606, read-out: MIC, A. baumannii ATCC 19606
[4] = tested on: N. gonorrhoeae ATCC 49226; assay: Liquid broth MIC in Fastidious broth; settings: Neisseria gonorrhoeae, ATCC49226, read-out: Minimum Inhibitory Concentration (MIC), N. gonorrhoeae ATCC 49226

Structure (SMILES)	MIC [1]	MIC (N. gonorrhoeae CDC-0197)	MIC (E. coli AG100A)	MIC (N. gonorrhoeae WHO Q)	MIC (N. gonorrhoeae WHO M)	EC50 [2]	MIC (E. coli ATCC 25922)	IC50 [3]	MIC (K. pneumoniae 848844)	MIC (N. gonorrhoeae WHO X)	MIC (A. baumannii ATCC 19606)	MIC [4]
O=C(O)c1cccc2c1OB(O)[C@@H](NC(=O)[C@@H](NC(=O)c1cccn(C(F)F)c1=O)c1ccc(P(=O)(O)O)cc1)C2 (single isomer, unassigned) [Example 190]	32 to 64 µg/mL (≈ 54.1 to 108 µM)	4 to 8 µg/mL (≈ 6.77 to 13.5 µM)	> 128 µg/mL	4 to 8 µg/mL (≈ 6.77 to 13.5 µM)	1 to 2 µg/mL (≈ 1.69 to 3.38 µM)	10 to 50 µM	> 128 µg/mL	< 10 µM	> 128 µg/mL	16 to 32 µg/mL (≈ 27.1 to 54.1 µM)	> 128 µg/mL	4 to 8 µg/mL (≈ 6.77 to 13.5 µM)
O=C(O)c1cccc2c1OB(O)[C@@H](NC(=O)[C@H](NC(=O)c1cccn(C(F)F)c1=O)c1ccc(P(=O)(O)O)cc1)C2 (single isomer, unassigned) [Example 191]	8 to 16 µg/mL (≈ 13.5 to 27.1 µM)	1 to 2 µg/mL (≈ 1.69 to 3.38 µM)	32 to 64 µg/mL (≈ 54.1 to 108 µM)	1 to 2 µg/mL (≈ 1.69 to 3.38 µM)	< 1 µg/mL	< 10 µM	> 128 µg/mL	< 10 µM	> 128 µg/mL	16 to 32 µg/mL (≈ 27.1 to 54.1 µM)	> 128 µg/mL	1 to 2 µg/mL (≈ 1.69 to 3.38 µM)
O=C(N[C@H](C(=O)N[C@H]1Cc2cccc(C(=O)O)c2OB1O)c1ccc(P(=O)(O)O)cc1)c1ccc(C(F)(F)F)cn1 (single isomer, unassigned) [Example 192]	32 to 64 µg/mL (≈ 53.9 to 108 µM)	1 to 2 µg/mL (≈ 1.69 to 3.37 µM)	32 to 64 µg/mL (≈ 53.9 to 108 µM)	1 to 2 µg/mL (≈ 1.69 to 3.37 µM)	< 1 µg/mL	10 to 50 µM	> 128 µg/mL	< 10 µM	> 128 µg/mL	16 to 32 µg/mL (≈ 27 to 53.9 µM)	> 128 µg/mL	1 to 2 µg/mL (≈ 1.69 to 3.37 µM)
O=C(N[C@@H](C(=O)N[C@H]1Cc2cccc(C(=O)O)c2OB1O)c1ccc(P(=O)(O)O)cc1)c1ccc(C(F)(F)F)cn1 (single isomer, unassigned) [Example 193]	32 to 64 µg/mL (≈ 53.9 to 108 µM)	< 1 µg/mL	8 to 16 µg/mL (≈ 13.5 to 27 µM)	1 to 2 µg/mL (≈ 1.69 to 3.37 µM)	< 1 µg/mL	< 10 µM	32 to 64 µg/mL (≈ 53.9 to 108 µM)	< 10 µM	> 128 µg/mL	4 to 8 µg/mL (≈ 6.74 to 13.5 µM)	> 128 µg/mL	< 1 µg/mL
O=C(O)c1cccc2c1OB(O)[C@@H](NC(=O)[C@@H](NC(=O)c1cnc3sccn3c1=O)c1ccc(P(=O)(O)O)cc1)C2 (single isomer, unassigned) [Example 194]	32 to 64 µg/mL (≈ 53.5 to 107 µM)	16 to 32 µg/mL (≈ 26.7 to 53.5 µM)	> 128 µg/mL	16 to 32 µg/mL (≈ 26.7 to 53.5 µM)	4 to 8 µg/mL (≈ 6.69 to 13.4 µM)	10 to 50 µM	> 128 µg/mL	< 10 µM	> 128 µg/mL	16 to 32 µg/mL (≈ 26.7 to 53.5 µM)	> 128 µg/mL	4 to 8 µg/mL (≈ 6.69 to 13.4 µM)
O=C(O)c1cccc2c1OB(O)[C@@H](NC(=O)[C@H](NC(=O)c1cnc3sccn3c1=O)c1ccc(P(=O)(O)O)cc1)C2 (single isomer, unassigned) [Example 195]	8 to 16 µg/mL (≈ 13.4 to 26.7 µM)	4 to 8 µg/mL (≈ 6.69 to 13.4 µM)	> 128 µg/mL	4 to 8 µg/mL (≈ 6.69 to 13.4 µM)	1 to 2 µg/mL (≈ 1.67 to 3.34 µM)	< 10 µM	> 128 µg/mL	< 10 µM	> 128 µg/mL	16 to 32 µg/mL (≈ 26.7 to 53.5 µM)	> 128 µg/mL	4 to 8 µg/mL (≈ 6.69 to 13.4 µM)
O=C(O)c1c(F)ccc2c1OB(O)[C@@H](NC(=O)C(NC(=O)N1CCN(Cc3ccc(O)c(O)c3Cl)C(=O)C1=O)c1ccc(P(=O)(O)O)cc1)C2 (stereo partly drawn) [Example 8, (3R)-3-(2-(4-(2-chloro-3,4-dihydroxybenzyl)-2,3-dioxopiperazine-1-carboxamido)-2-(4-phosphonophenyl)acetamido)-7-fluoro-2-hydroxy-3,4-dihydro-2H-benzo[e][1,2]oxaborinine-8-carboxylic acid]	< 1 µg/mL	1 to 2 µg/mL (≈ 1.36 to 2.72 µM)	< 1 µg/mL	< 1 µg/mL	< 1 µg/mL	< 10 µM	2 to 4 µg/mL (≈ 2.72 to 5.44 µM)	< 10 µM	> 128 µg/mL	4 to 8 µg/mL (≈ 5.44 to 10.9 µM)	< 1 µg/mL	< 1 µg/mL
CS(=O)(=O)N1CCN(C(=O)NC(C(=O)N[C@H]2Cc3cccc(C(=O)O)c3OB2O)c2ccc(P(=O)(O)O)c(Cl)c2)C1=O (stereo partly drawn) [Example 11, (3R)-3-(2-(3-chloro-4-phosphonophenyl)-2-(3-(methylsulfonyl)-2-oxoimidazolidine-1-carboxamido)acetamido)-2-hydroxy-3,4-dihydro-2H-benzo[e][1,2]oxaborinine-8-carboxylic acid]	32 to 64 µg/mL (≈ 49.6 to 99.3 µM)	< 1 µg/mL	8 to 16 µg/mL (≈ 12.4 to 24.8 µM)	< 1 µg/mL	< 1 µg/mL	< 10 µM	32 to 64 µg/mL (≈ 49.6 to 99.3 µM)	< 10 µM	> 128 µg/mL	1 to 2 µg/mL (≈ 1.55 to 3.1 µM)	> 128 µg/mL	< 1 µg/mL
CS(=O)(=O)N1CCN(C(=O)NC(C(=O)N[C@H]2Cc3cccc(C(=O)O)c3OB2O)c2ccc(P(=O)(O)O)c(F)c2)C1=O (stereo partly drawn) [Example 12, (3R)-3-(2-(3-fluoro-4-phosphonophenyl)-2-(3-(methylsulfonyl)-2-oxoimidazolidine-1-carboxamido)acetamido)-2-hydroxy-3,4-dihydro-2H-benzo[e][1,2]oxaborinine-8-carboxylic acid]	32 to 64 µg/mL (≈ 50.9 to 102 µM)	< 1 µg/mL	8 to 16 µg/mL (≈ 12.7 to 25.5 µM)	< 1 µg/mL	< 1 µg/mL	< 10 µM	32 to 64 µg/mL (≈ 50.9 to 102 µM)	< 10 µM	> 128 µg/mL	< 1 µg/mL	32 to 64 µg/mL (≈ 50.9 to 102 µM)	< 1 µg/mL
NC(C(=O)N[C@H]1Cc2ccc(F)c(C(=O)O)c2OB1O)c1ccc(P(=O)(O)O)cc1 (stereo partly drawn) [Example 14, (3R)-3-(2-amino-2-(4-phosphonophenyl)acetamido)-7-fluoro-2-hydroxy-3,4-dihydro-2H-benzo[e][1,2]oxaborinine-8-carboxylic acid]	> 128 µg/mL	> 64 µg/mL	> 128 µg/mL	> 64 µg/mL	> 64 µg/mL	> 250 µM	> 128 µg/mL	> 250 µM	> 128 µg/mL	> 64 µg/mL	> 128 µg/mL	> 64 µg/mL
CS(=O)(=O)N1CCN(C(=O)N[C@@H](C(=O)N[C@H]2Cc3ccc(F)c(C(=O)O)c3OB2O)c2ccc(P(=O)(O)O)c(F)c2F)C1=O [Example 16, (R)-3-((R)-2-(2,3-difluoro-4-phosphonophenyl)-2-(3-(methylsulfonyl)-2-oxoimidazolidine-1-carboxamido)acetamido)-7-fluoro-2-hydroxy-3,4-dihydro-2H-benzo[e][1,2]oxaborinine-8-carboxylic acid]	> 128 µg/mL	< 1 µg/mL	32 to 64 µg/mL (≈ 48.2 to 96.3 µM)	< 1 µg/mL	< 1 µg/mL	< 10 µM	> 128 µg/mL	< 10 µM	> 128 µg/mL	< 1 µg/mL	> 128 µg/mL	< 1 µg/mL
